The source of these data is US20130042333A1, “MARKERS FOR CANCER PROGNOSIS AND THERAPY AND METHODS OF USE” (priority 2011, published 2013).

In experiment [1] the test system is HBCx-14 breast tumor xenograft. To be noted: A/C 2/100 or C 100 mg/kg, x2 cycles. The source says:
(§1) Tumor xenografts were generated by direct subcutaneous grafting into immunodeficient mice of human tumor surgical samples with informed written consent of the patients and maintained by serial transplantation. […] They are thus clinically relevant tumor models, as opposed to xenografts produced from tumor cell lines that have been obtained by in vitro culture and often passaged for many years (Fiebig, H. H. et al. Eur J Cancer 40, 802-820, 2004; Marangoni E., Vincent-Salomon A., Auger N. et al. Clin Cancer Res. 2007 Jul. 1; 13:3989-98).
(§2) Chemotherapeutic drugs were administered by intraperitoneal route according to the following doses and schedules: adriamycin, 2 mg/kg, q3wk (Doxorubicin®, Teva Pharmaceuticals, France) and Cyclophosphamide, 100 mg/kg, q3wk (Endoxan®, Baxter, France). Irinotecan (Campto®, Pfizer Holding France), 50 mg/kg, q4dx4. Etoposide 12 mg/kg, qdx3. Ifosfamide 90 mg/kg, qdx3. bPARP inhibitor (AZD2281, Sequoia Research Products, UK) at 50 mg/kg (ip; qdx14). A second treatment cycle was performed with PARP inhibitor at 50 mg/kg (ip qdx5) during the nodule phase. Other pharmacological inhibitors are tested and administrated at the nodule phase: JAK1/2 Inhibitor (CP-690550) at 15 mg/kg (po qdx14), Epigallocatechin gallate (ECGC) (Sequoia Research Products, UK) at 30 mg/kg (ip qdx28), HDAC inhibitor (Trichostatine A), Retinoic acid at 50 mg/kg (ip qdx28) (Sigma-Aldrich, France). Breast tumor xenograft models were transplanted into 5-week old female Swiss nude mice, as described above, one tumor being transplanted into 5-10 recipients. When tumors reached a volume of 60-250 mm3, mice were individually identified and randomly assigned to the control or treated groups (12 to 20 mice per group). Tumor volume was evaluated by measuring two perpendicular diameters of the tumor, with a calliper, biweekly during the treatment period and once a week during the follow-up period. The formula TV (mm3)=[length (mm)×width (mm)2]/2 was used, where the length and the width were the longest and the shortest diameters of the tumor, respectively. All animals were weighted biweekly during the treatment period and the follow-up period. Mice were ethically sacrificed when the tumor volume reached 2000 mm3 Individual tumor growth delays (TGD) is calculated as the time in days required for individual tumors to reach 3- to 5-fold the initial median tumor volume. The tumor growth delay index (TGDI) is calculated as the median growth delay in the treated group divided by the median growth delay in the control group. The percentage ratio between the mean tumor volume of a treated group (T) and the mean tumor volume of the control group (C) is calculated.
(§3) Tumors were collected from 5 independent mice at different time points: prior to treatment (=controls with volume<200 mm3); post-treatment residual tumors (=nodules with volume<32 mm3 until minimal palpation); recurrent tumors (=regrowth with volume>62.5 mm3) Tumors or nodules were processed for (1) FFPE (formalin-fixed paraffin-embedded) or for (2) snap frozen samples: samples were cut into 3-4 mm pieces (at least 3 fragments) and snap-frozen in liquid nitrogen, then transferred to −80° C. for storage. Samples were allocated for histology, microdissection and RNA analyses.
Three categories of responders were defined based on the TGDI and T/C values.

Experiment [2] concerns Stat1 (total, phospho-Tyr701, phospho-Ser727), Ifi27, Ifi44, Lcn2, Oas1. Particulars: T330 breast cancer xenograft; after chemotherapy; compared with A/C combination. As to the method: as §3
Experiment [3] concerns TC301 colorectal cancer xenograft. As to the kind of experiment: Tumor regression-regrowth assay, TC301 xenograft. In kind it is in vivo, human tumor in immunodeficient mice. Particulars: I 40 mg/kg, x1 cycle.
Text: as §1
as §2, with “Irinotecan (Campto®, Pfizer Holding France), 50 mg/kg, q4dx4.” left out, “calculated. […]” for “calculated.”
A general note: A xenograft is tissue or cells of one species grown in another, often human tumour cells in immunodeficient mice.

Experiment [4] concerns 21 genes implicated in IFN/Stat pathway. Description: Real-time quantitative RT-PCR of the 21-gene IFN/Stat signature in tumor xenografts after chemotherapy. Particulars: colorectal tumor xenograft (TC301). In kind it is in vivo, human tumor in immunodeficient mice. As for the experimental part:
Samples were allocated for histology, microdissection and RNA analyses.
Total RNA amount was measured using the Nanodrop (ND1000, ThermoFisher) and RNA quality was assessed with the Agilent 2100 Bioanalyzer onto RNA NanoChip (Agilent Technology, Massy, France). Three samples from each condition were pooled. Two μg of total RNA were reverse-transcribed with the First strand cDNA synthesis kit (Roche Applied Science, Switzerland) according to manufacturer's instructions. For the priming method, a combination of ¾ random hexamer primers and ¼ anchored-oligo(dT)18 primers was used to avoid 3′-prime bias in cDNAs. qPCR analyses of gene transcripts was done with 5 ng of RNA for each reaction. Three housekeeping genes were used as references for relative quantification of target genes expression. […]
Validation of the microarray gene and microRNA expression data was performed by qPCR using primers specific for human sequences (eg. non-cross-reactive with murine sequences). The effect of chemotherapy on the activation of 21 genes implicated in IFN/Stat pathway (IFIT1, IFITM1, IRF9, IFI6, IFI44, IFI44L, OAS1, OAS2, LAMP3, MX1, PARP9, PARP12, SAMD9, SAMD9L, BST2, DDX60, CLDN1, STAT1, STAT2, UBE2L6, ZNFX1) and two miRNA (miR-142-3p and miR150) was analyzed in responder versus non-responder tumor models. […]

The structures appear in SMILES notation.

`O=P1(N(CCCl)CCCl)NCCCO1` (stereo not shown) [C, Cyclophosphamide]: in experiment [1], the “% Nodules” value is 100%, the “% Tumor Relapse” value is on record as 67%, the “Median Nodule Apparition Time” value was 11 and the “Median Time of Relapse” value stood at 53. Besides, in experiment [1], the “T/C % D21” value is reported as 2%, the TGDI stood at 6.66 and the “median TGD × 5” value is recorded as 82.00 days. The “total and phosphorylated Stat1 protein (western blotting)” value in experiment [2] was “same increase in Stat 1 protein amount and phosphorylation level”.

Consider `CCc1c2c(nc3ccc(OC(=O)N4CCC(N5CCCCC5)CC4)cc13)-c1cc3c(c(=O)n1C2)COC(=O)[C@]3(O)CC` [I, Irinotecan], for which, in experiment [3], the “% Nodules” value came to 43%, the “% Tumor Relapse” value turned out to be 100%, the “Median Nodule Apparition Time” value was 26 and the “Median Time of Relapse” value is 18. Moreover, the “expression of IFN/Stat gene signature in residual nodules (qPCR)” value in experiment [4] is listed as “gene expression was globally increased”.
